# Data reported in ChEMBL document CHEMBL1147859, “Thienopyrimidinone bis-aminopyrrolidine ureas as potent melanin-concentrating hormone receptor-1 (MCH-R1) antagonists” (Bioorg Med Chem Lett, 2007).
# Assays:
# [1] = biological target: T1, Melanin-concentrating hormone receptor 1 (Homo sapiens, UniProt Q99705); experiment: Antagonist activity at human MCHR1 by [35S]GTP-gamma-S binding assay; format: functional
# [2] = biological target: T1, Melanin-concentrating hormone receptor 1; experiment: Binding affinity to human MCHR1
# Cytochrome P450 2D6 = Cytochrome P450 2D6 (Homo sapiens, UniProt P10635); experiment: Inhibition of CYP2D6; format: ADME; conditions: for Activity: human
# Cytochrome P450 2D6, sequence (P10635 whole entry): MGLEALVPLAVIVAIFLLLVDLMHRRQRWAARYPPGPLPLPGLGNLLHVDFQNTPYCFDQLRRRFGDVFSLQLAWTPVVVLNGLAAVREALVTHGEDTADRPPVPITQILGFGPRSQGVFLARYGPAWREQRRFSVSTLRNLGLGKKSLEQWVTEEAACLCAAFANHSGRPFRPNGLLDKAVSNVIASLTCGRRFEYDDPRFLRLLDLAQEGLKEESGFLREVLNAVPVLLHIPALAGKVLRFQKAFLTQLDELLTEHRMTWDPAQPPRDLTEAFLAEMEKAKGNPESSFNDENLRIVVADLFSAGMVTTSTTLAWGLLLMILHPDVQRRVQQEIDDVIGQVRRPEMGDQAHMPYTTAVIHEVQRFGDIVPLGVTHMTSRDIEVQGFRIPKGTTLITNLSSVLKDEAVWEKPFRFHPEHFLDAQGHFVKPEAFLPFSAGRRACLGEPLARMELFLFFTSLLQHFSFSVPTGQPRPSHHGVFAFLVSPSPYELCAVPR
# [3] = Intrinsic clearance in human liver microsome; format: ADME; conditions: liver microsomes
# CYP2D6 = CYP2D6 (Homo sapiens, UniProt P10635); experiment: Inhibition of CYP2D6 at 120 uM; format: ADME
# CYP2D6, sequence (P10635 whole entry): as above
# T1 sequence (Q99705 whole entry): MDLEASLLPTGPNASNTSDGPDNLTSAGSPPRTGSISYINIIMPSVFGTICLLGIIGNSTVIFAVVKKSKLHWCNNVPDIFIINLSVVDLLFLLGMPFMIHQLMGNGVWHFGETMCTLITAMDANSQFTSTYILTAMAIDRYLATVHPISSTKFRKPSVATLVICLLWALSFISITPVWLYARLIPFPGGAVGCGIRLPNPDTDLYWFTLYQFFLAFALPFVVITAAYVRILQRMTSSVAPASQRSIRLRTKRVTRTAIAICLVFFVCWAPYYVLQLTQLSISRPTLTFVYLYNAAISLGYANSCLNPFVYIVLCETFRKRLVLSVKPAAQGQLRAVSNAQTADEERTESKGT
SMILES,IC50 [1] [nM],Ki [2] [nM],further results
COc1ccc(-c2cc3ncn([C@H]4CCN(C(=O)N(C)[C@H]5CCN(C)C5)C4)c(=O)c3s2)c(C)c1,–,46,–
CN(C(=O)N1CC[C@@H](n2cnc3cc(-c4ccc(Cl)cc4)sc3c2=O)C1)[C@@H]1CCN(C2CCOCC2)C1,–,69,–
CCOc1ccc(-c2cc3ncn([C@H]4CCN(C(=O)N(C)[C@H]5CCN(C)C5)C4)c(=O)c3s2)c(Cl)c1,–,26,–
"CN(C(=O)N1CCC(n2cnc3cc(-c4ccc(Cl)cc4)sc3c2=O)C1)[C@@H]1CCN(C2CCOCC2)C1 (single isomer, unassigned)",–,21,–
CN(C(=O)N1CC[C@H](n2cnc3cc(-c4ccc(C(F)(F)F)cc4)sc3c2=O)C1)[C@H]1CCN(C2CCOCC2)C1,–,19,–
Cc1ccc(-c2cc3ncn([C@H]4CCN(C(=O)N(C)[C@H]5CCN(C)C5)C4)c(=O)c3s2)c(C)c1,–,49,–
Cc1ccc(-c2cc3ncn([C@H]4CCN(C(=O)N(C)[C@H]5CCN(C6CCOCC6)C5)C4)c(=O)c3s2)c(C)c1,–,70,–
COc1ccc(-c2cc3ncn([C@H]4CCN(C(=O)N(C)[C@H]5CCN(C6CCOCC6)C5)C4)c(=O)c3s2)c(C)c1,–,28,–
CN(C(=O)N1CC[C@@H](n2cnc3cc(-c4ccc(Cl)cc4)sc3c2=O)C1)[C@H]1CCN(C2CCOCC2)C1,–,154,–
CN(C(=O)N1CC[C@H](n2cnc3cc(-c4ccc(Cl)cc4)sc3c2=O)C1)[C@H]1CCN(CC(=O)c2ccc(OC(F)(F)F)cc2)C1,–,80,–
CN1CC[C@H](N(C)C(=O)N2CC[C@H](n3cnc4cc(-c5ccc6c(c5)OCCO6)sc4c3=O)C2)C1,–,143,–
CN(C(=O)N1CC[C@H](n2cnc3cc(-c4ccc5c(c4)OCCO5)sc3c2=O)C1)[C@H]1CCN(C2CCOCC2)C1,–,45,–
CN(C(=O)N1CC[C@H](n2cnc3cc(-c4ccc(Cl)cc4)sc3c2=O)C1)[C@H]1CCN(CC2CCCCC2)C1,53,50,–
COc1ccc(-c2cc3ncn([C@H]4CCN(C(=O)N(C)[C@H]5CCN(C)C5)C4)c(=O)c3s2)cc1,–,21,–
CN1CC[C@H](N(C)C(=O)N2CC[C@H](n3cnc4cc(-c5ccc(OC(F)(F)F)cc5)sc4c3=O)C2)C1,–,39,–

# Molecules with a lower Ki [2], results first:
IC50 [1] [nM],Ki [2] [nM],SMILES,further results
10,4,CN(C(=O)N1CC[C@H](n2cnc3cc(-c4ccc(Cl)cc4)sc3c2=O)C1)[C@H]1CCN(CC2CCOC2)C1 (some centres not stated),–
20,10,CN1CC[C@H](N(C)C(=O)N2CC[C@H](n3cnc4cc(-c5ccc(Cl)cc5)sc4c3=O)C2)C1,Activity (Cytochrome P450 2D6): 99 µM; CLint scaled [3]: 16 mL/min/kg
15,4,CN(C(=O)N1CC[C@H](n2cnc3cc(-c4ccc(Cl)cc4)sc3c2=O)C1)[C@H]1CCN(Cc2ccoc2)C1,–
–,5,CCc1ccc(-c2cc3ncn([C@H]4CCN(C(=O)N(C)[C@H]5CCN(C)C5)C4)c(=O)c3s2)cc1,inhibition at 120 µM (CYP2D6): 42%; CLint scaled [3]: 200 mL/min/kg
10,2,CN(C(=O)N1CC[C@H](n2cnc3cc(-c4ccc(Cl)cc4)sc3c2=O)C1)[C@H]1CCN(C2CCC(C)(C)CC2)C1,IC50 (Cytochrome P450 2D6): 3400 nM
–,17,CN1CC[C@H](N(C)C(=O)N2CC[C@H](n3cnc4cc(-c5ccc(C(F)(F)F)cc5)sc4c3=O)C2)C1,–
11,7,CN(C(=O)N1CC[C@H](n2cnc3cc(-c4ccc(Cl)cc4)sc3c2=O)C1)[C@H]1CCN(CCC2CCOCC2)C1,–
–,14,CCOc1ccc(-c2cc3ncn([C@H]4CCN(C(=O)N(C)[C@H]5CCN(C6CCOCC6)C5)C4)c(=O)c3s2)c(Cl)c1,–
–,8,CCc1ccc(-c2cc3ncn([C@H]4CCN(C(=O)N(C)[C@H]5CCN(C6CCOCC6)C5)C4)c(=O)c3s2)cc1,Activity (Cytochrome P450 2D6): 57 µM; CLint scaled [3]: 85 mL/min/kg
11,7,CN(C(=O)N1CC[C@H](n2cnc3cc(-c4ccc(Cl)cc4)sc3c2=O)C1)[C@H]1CCN(CC2CCOCC2)C1,–
–,18,CN(C(=O)N1CC[C@H](n2cnc3cc(-c4ccc(OC(F)(F)F)cc4)sc3c2=O)C1)[C@H]1CCN(C2CCOCC2)C1,–
23,5,CC(C)N1CC[C@H](N(C)C(=O)N2CC[C@H](n3cnc4cc(-c5ccc(Cl)cc5)sc4c3=O)C2)C1,–
9,1,CN(C(=O)N1CC[C@H](n2cnc3cc(-c4ccc(Cl)cc4)sc3c2=O)C1)[C@H]1CCN(C2CCC2)C1,–
13,4,CN(C(=O)N1CC[C@H](n2cnc3cc(-c4ccc(Cl)cc4)sc3c2=O)C1)[C@H]1CCN(C2CCCC2)C1,–
44,17,CN(C(=O)N1CC[C@H](n2cnc3cc(-c4ccc(Cl)cc4)sc3c2=O)C1)[C@H]1CCN(CC(=O)C(C)(C)C)C1,–
23,3,CN(C(=O)N1CC[C@H](n2cnc3cc(-c4ccc(Cl)cc4)sc3c2=O)C1)[C@H]1CCN(C2CCOCC2)C1,IC50 (Cytochrome P450 2D6): 22500 nM; CLint scaled [3]: 24 mL/min/kg
29,17,CN(C(=O)N1CC[C@H](n2cnc3cc(-c4ccc(Cl)cc4)sc3c2=O)C1)[C@H]1CCNC1,–
10,3,CN(C(=O)N1CC[C@H](n2cnc3cc(-c4ccc(Cl)cc4)sc3c2=O)C1)[C@H]1CCN(CC2CC2)C1,–
–,15,Cc1ccc(-c2cc3ncn([C@H]4CCN(C(=O)N(C)[C@H]5CCN(C)C5)C4)c(=O)c3s2)cc1,–
–,14,Cc1ccc(-c2cc3ncn([C@H]4CCN(C(=O)N(C)[C@H]5CCN(C6CCOCC6)C5)C4)c(=O)c3s2)cc1,–
31,6,CN(C(=O)N1CC[C@H](n2cnc3cc(-c4ccc(Cl)cc4)sc3c2=O)C1)[C@H]1CCN(CCCc2ccccc2)C1,IC50 (Cytochrome P450 2D6): 8600 nM; CLint scaled [3]: 41 mL/min/kg
